# Test results from US9604975B2, “Indolyl-pyridone derivatives having checkpoint kinase 1 inhibitory activity” (Vernalis (R&D) Ltd., priority 2009, dated 2017).
# Molecular target: T1, CHK1 (Homo sapiens, UniProt O14757)
# T1 construct: His; purchased Invitrogen
# T1 sequence (O14757 1-476): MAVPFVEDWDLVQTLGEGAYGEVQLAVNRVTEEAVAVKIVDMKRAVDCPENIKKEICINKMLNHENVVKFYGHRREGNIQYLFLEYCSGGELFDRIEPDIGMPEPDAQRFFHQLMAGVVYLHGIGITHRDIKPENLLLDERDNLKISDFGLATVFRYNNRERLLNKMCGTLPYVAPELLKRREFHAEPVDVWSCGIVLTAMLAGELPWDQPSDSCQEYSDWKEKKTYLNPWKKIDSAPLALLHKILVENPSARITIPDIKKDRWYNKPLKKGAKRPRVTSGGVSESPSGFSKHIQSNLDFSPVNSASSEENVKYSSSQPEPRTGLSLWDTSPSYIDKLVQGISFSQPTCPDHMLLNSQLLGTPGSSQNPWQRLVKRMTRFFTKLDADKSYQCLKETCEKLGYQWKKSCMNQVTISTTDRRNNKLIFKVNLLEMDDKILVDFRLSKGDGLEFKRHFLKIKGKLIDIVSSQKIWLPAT
# Test: CHK1 Enzyme Assay (phosphorylation of Chktide peptide, 33P-ATP filter assay)
# Format: biochemical
# Details: 12.5 nM His-CHK1, 0.01 mM ATP, 40 minutes at 30° C.; read-out: CHK1 Enzyme Activity (IC50 range)
# Outline: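 His-CHK1 (12.5 nM) phosphorylating 14.8 μM Chktide with 0.01 mM ATP plus 33P-γ-ATP, in 50 mM Hepes-NaOH pH 7.5 with 0.1 mg/mL BSA. Incubated with inhibitor for 40 min at 30 °C. Stopped with phosphoric acid; phosphopeptide captured on filter and counted by scintillation.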
row,Structure (SMILES),IC50 [µM]
1,"CC(c1ccccc1)n1cc(C(=O)Nc2c[nH]c(=O)c(-c3cc4cc(CN5CCOCC5)ccc4[nH]3)c2)cn1 (stereo not shown) [Example 86, 1-(1-Phenyl-ethyl)-1H-pyrazole-4-carboxylic acid [5-(5-morpholin-4-ylmethyl-1H-indol-2-yl)-6-oxo-1,6-dihydro-pyridin-3-yl]-amide]",< 0.1
2,"CC(c1ccc(F)cc1)n1cc(C(=O)Nc2c[nH]c(=O)c(-c3cc4cc(CN5CCCCC5)ccc4[nH]3)c2)cn1 (stereo not shown) [Example 88, 1-[1-(4-Fluoro-phenyl)-ethyl]-1H-pyrazole-4-carboxylic acid [6-oxo-5-(5-piperidin-1-ylmethyl-1-H-indol-2-yl)-1,6-dihydro-pyridin-3-yl]-amide]",< 0.1
3,"CC(c1ccc(F)cc1)n1cc(C(=O)Nc2c[nH]c(=O)c(-c3cc4cc(CN5CCN(C)CC5)ccc4[nH]3)c2)cn1 (stereo not shown) [Example 89, 1-[1-(4-Fluoro-phenyl)-ethyl]-1H-pyrazole-4-carboxylic acid {5-[5-(4-methylpiperazin-1-ylmethyl)-1H-indol-2-yl]-6-oxo-1,6-dihydro-pyridin-3-yl}-amide]",< 0.1
4,"CC(c1ccc(F)cc1)n1cc(C(=O)Nc2c[nH]c(=O)c(-c3cc4cc(CN5CCC(F)CC5)ccc4[nH]3)c2)cn1 (stereo not shown) [Example 90, 1-[1-(Fluoro-phenyl)-ethyl]-1H-pyrrazole-4-carboxylic acid {5-[5-(4-fluoro-piperidin-1ylmethyl)-1H-indol-2-yl]-6-oxo-1,6-dihydro-pyridin-3-yl}-amide]",< 0.1
5,"CC(c1ccccc1)n1cc(C(=O)Nc2c[nH]c(=O)c(-c3cc4cc(CN5C[C@@H](C)O[C@@H](C)C5)ccc4[nH]3)c2)cn1 (stereo partly drawn) [Example 91, 1-(1-Phenyl-ethyl)-1H-pyrazole-4-carboxylic acid {5-[5-(cis-2,6-dimethyl-morpholin-4-ylmethyl)-1H-indol-2-yl]-6-oxo-1,6-dihydro-pyridin-3-yl}-amide]",< 0.1
6,"CC1CCN(Cc2ccc3[nH]c(-c4cc(NC(=O)c5cnn(C(C)c6ccccc6)c5)c[nH]c4=O)cc3c2)CC1 (stereo not shown) [Example 92, 1-(1-Phenyl-ethyl)-1H-pyrazole-4-carboxylic acid {5-[5-(4-methyl-piperidin-1-ylmethyl)-1H-indol-2-yl]-6-oxo-1,6-dihydro-pyridin-3-yl}-amide]",< 0.1
7,"CC(c1ccccc1)n1cc(C(=O)Nc2c[nH]c(=O)c(-c3cc4ccccc4[nH]3)c2)cn1 (stereo not shown) [Example 93, 1-(1-Phenylethyl)-1H-pyrazole-4-carboxylic acid [5-(1H-indol-2-yl)-6-oxo-1,6-dihydropyridin-3-yl]-amide]",< 0.1
8,"O=C(Nc1c[nH]c(=O)c(-c2cc3ccccc3[nH]2)c1)c1cnn(CCCc2ccccc2)c1 [Example 94, 1-(3-Phenyl-propyl)-1H-pyrazole-4-carboxylic acid [5-(1H-indol-2-yl)-6-oxo-1,6-dihydro-pyridin-3-yl]-amide]",< 0.1
9,"O=C(Nc1c[nH]c(=O)c(-c2cc3cc(CN4CCCCC4)ccc3[nH]2)c1)c1cnn(CCc2ccc(F)cc2)c1 [Example 95, 1-[2-(4-Fluoro-phenyl)-ethyl]-1H-pyrazole-4-carboxylic acid [6-oxo-5-(5-piperidin-1-ylmethyl-1H-indol-2-yl)-1,6-dihydro-pyridin-3-yl]-amide]",< 0.1
10,"O=C(Nc1c[nH]c(=O)c(-c2cc3cc(CN4CCC(F)CC4)ccc3[nH]2)c1)c1cnn(CCc2ccc(F)cc2)c1 [Example 96, 1-[2-(4-Fluoro-phenyl)-ethyl]-1H-pyrazole-4-carboxylic acid {5-[5-(4-fluoro-piperidin-1-ylmethyl)-1H-indol-2-yl]-6-oxo-1,6-dihydro-pyridin-3-yl}-amide]",< 0.1
11,"O=C(Nc1cnn(Cc2ccc(F)c(F)c2)c1)c1c[nH]c(=O)c(-c2cc3cc(CN4CCC(F)CC4)ccc3[nH]2)c1 [Example 97, 5-[5-(4-Fluoro-piperidin-1-ylmethyl)-1H-indol-2-yl]-6-oxo-1,6-dihydro-pyridine-3-carboxylic acid [1-(3,4-difluoro-benzyl)-1H-pyrazol-4-yl]-amide]",< 0.1

# Next, values leading:
row,IC50 [µM],Structure (SMILES)
1,< 0.1,"O=C(Nc1cnn(Cc2ccc(F)c(F)c2)c1)c1c[nH]c(=O)c(-c2cc3cc(CN4CCCC4)ccc3[nH]2)c1 [Example 98, 6-oxo-5-(5-pyrrolidin-1-ylmethyl-1H-indol-2-yl)-1,6-dihydro-pyridine-3-carboxylic acid [1-(3,4-difluoro-benzyl)-1H-pyrazol-4-yl]-amide]"
2,< 0.1,"O=C(Nc1cnn(Cc2ccc(F)c(F)c2)c1)c1c[nH]c(=O)c(-c2cc3cc(CN4CCOCC4)ccc3[nH]2)c1 [Example 99, 5-(5-Morpholin-4-ylmethyl-1H-indol-2-yl)-6-oxo-1,6-dihydro-pyridine-3-carboxylic acid [1-(3,4-difluoro-benzyl)-1H-pyrazol-4-yl]-amide]"
3,< 0.1,"O=C(Nc1cnn(Cc2ccc(F)c(F)c2)c1)c1c[nH]c(=O)c(-c2cc3cc(CN4CCC(O)CC4)ccc3[nH]2)c1 [Example 100, 5-[5-(4-Hydroxypiperidin-1-ylmethyl)-1H-indol-2yl]-6-oxo-1,6-dihydropyridine-3-carboxylic acid[1-(3,4-difluorobenzyl)-1H-pyrazol-4-yl]-amide]"
4,< 0.1,"CN(CCO)Cc1ccc2[nH]c(-c3cc(C(=O)Nc4cnn(Cc5ccc(F)c(F)c5)c4)c[nH]c3=O)cc2c1 [Example 101, 5-(5-{[(2-hydroxyethyl)-methylamino]-methyl}-1H-indol-2yl)-6-oxo-1,6-dihydropyridine-3-carboxylic acid[1-(3,4-difluorobenzyl)-1H-pyrazol-4-yl]-amide]"
5,< 0.1,"CCN(CCO)Cc1ccc2[nH]c(-c3cc(C(=O)Nc4cnn(Cc5ccc(F)c(F)c5)c4)c[nH]c3=O)cc2c1 [Example 102, 5-(5-{[Ethyl-(2-hydroxyethyl)amino]-methyl}-1H-indol-2yl)-6-oxo-1,6-dihydropyridine-3-carboxylic acid[1-(3,4-difluorobenzyl)-1H-pyrazol-4-yl]-amide]"
6,< 0.1,"O=C(Nc1cnn(Cc2ccc(F)c(F)c2)c1)c1c[nH]c(=O)c(-c2cc3cc(CNCCO)ccc3[nH]2)c1 [Example 103, 5-{5-[(2-Hydroxyethylamino)-methyl]-1H-indol-2yl}-6-oxo-1,6-dihydropyridine-3-carboxylic acid[1-(3,4-difluorobenzyl)-1H-pyrazol-4-yl]-amide]"
7,< 0.1,"CN1CCN(Cc2ccc3[nH]c(-c4cc(C(=O)Nc5cnn(Cc6ccc(F)c(F)c6)c5)c[nH]c4=O)cc3c2)CC1 [Example 104, 5-[5-(4-Methyl-piperazin-1-ylmethyl)-1H-indol-2-yl]-6-oxo-1,6-dihydro-pyridine-3-carboxylic acid [1-(3,4-difluoro-benzyl)-1H-pyrazol-4-yl]-amide]"
8,< 0.1,"O=C(Nc1cnn(Cc2ccc(F)c(F)c2)c1)c1c[nH]c(=O)c(-c2cc3cc(CN4CCN(CCO)CC4)ccc3[nH]2)c1 [Example 105, 5-{5-[4-(2-Hydroxyethyl)-piperazin-1-ylmethyl]-1H-indol-2yl}-6-oxo-1,6-dihydropyridine-3-carboxylic acid[1-(3,4-difluorobenzyl)-1H-pyrazol-4-yl]-amide]"
9,< 0.1,"CN(C)Cc1cccc2[nH]c(-c3cc(NC(=O)c4cnn(Cc5ccccc5)c4)c[nH]c3=O)cc12 [Example 106, 1-Benzyl-1H-pyrazole-4-carboxylic acid [5-(4-dimethylaminomethyl-1H-indol-2-yl)-6-oxo-1,6-dihydro-pyridin-3-yl]-amide]"
10,< 0.1,"CN1CCN(Cc2cccc3[nH]c(-c4cc(NC(=O)c5cnn(Cc6ccccc6)c5)c[nH]c4=O)cc23)CC1 [Example 107, 1-Benzyl-1H-pyrazole-4-carboxylic acid {5-[4-(4-methyl-piperazin-1-ylmethyl)-1H-indol-2-yl]-6-oxo-1,6-dihydro-pyridin-3-yl}-amide]"
11,< 0.1,"O=C(Nc1c[nH]c(=O)c(-c2cc3c(CN4CCCCC4)cccc3[nH]2)c1)c1cnn(Cc2ccccc2)c1 [Example 108, 1-Benzyl-1H-pyrazole-4-carboxylic acid [6-oxo-5-(4-piperidin-1-ylmethyl-1H-indol-2-yl)-1,6-dihydro-pyridin-3-yl]-amide]"
12,< 0.1,"C[C@@H]1CN(Cc2cccc3[nH]c(-c4cc(NC(=O)c5cnn(Cc6ccccc6)c5)c[nH]c4=O)cc23)C[C@H](C)O1 [Example 109, 1-Benzyl-1H-pyrazole-4-carboxylic acid {5-[4-(cis-2,6-dimethyl-morpholin-4-ylmethyl)-1H-indol-2-yl]-6-oxo-1,6-dihydro-pyridin-3-yl}-amide]"
13,0.1 to 0.5,"O=C(Nc1cnn(Cc2ccc(F)nc2)c1)c1c[nH]c(=O)c(-c2cc3ccccc3[nH]2)c1 [Example 110, 5-(1H-Indol-2-yl)-6-oxo-1,6-dihydro-pyridine-3-carboxylic acid [1-(6-fluoro-pyridin-3-ylmethyl)-1H-pyrazol-4-yl]-amide]"
14,< 0.1,"O=C(Nc1c[nH]c(=O)c(-c2cc3ccccc3[nH]2)c1)c1cnn(Cc2ccc(F)nc2)c1 [Example 111, 1-(6-Fluoro-pyridin-3-ylmethyl)-1H-pyrazole-4-carboxylic acid [5-(1H-indol-2-yl)-6-oxo-1,6-dihydro-pyridin-3-yl]-amide]"
